Test results: US20200246308A1, “SYNERGISTIC COMBINATIONS OF UROLITHINS A AND B FOR IMPROVING COGNITIVE CAPACITY OR COGNITIVE FUNCTION” (Natreon, Inc., priority 2018, published 2020)

Experiments:
[1] = target: T1, recombinant human Acetylcholinesterase-induced β-Amyloid (Aβ40) Aggregation (Homo sapiens, UniProt P22303); experiment: Inhibition of human recombinant AChE-induced β-amyloid peptide aggregation, ThT method; type: biochemical; conditions: test compounds 50 μM, B:A in μM, 48 h
T1 construct: purchased Sigma Aldrich
Description: The Aβ1-40 (10 μM and 30 μM) was incubated alone and independently with different concentrations of test compounds in the ratios shown in Tables 6 and 7, respectively.
2 μL of different concentrations of Aβ40 (10 and 30 μM) was incubated with 16 μL of AChE in the presence of different ratio of test compounds to obtain final concentrations of 30 or 10 μM Aβ40, […], 10, 20, 50 μM test compounds and 2 μL assay buffer ([…]). The mixture was incubated at room temperature for 24 or 48 hr in dark (Time period may be changed according to experiment).
Fluorescence intensities were obtained for Aβ40 aggregation in the presence of inhibitors, in the absence of inhibitors and the blanks or solvent control. After incubation, 178 μL of 20 μM ThT was added.
The percentage inhibition of the AChE-induced Aβ1-40 aggregation was calculated as follows.
Chemical reagents and starting materials were employed as above.

[2] = target: T2, AchE from Electrophorus electricus (electric eel) (Electrophorus electricus, UniProt O42275); experiment: In-vitro AChE inhibition assay, Ellman method; type: biochemical
T2 construct: purchased Sigma Aldrich
Description: AchE from Electrophorus electricus (electric eel) CAS: 9000-81-1 was procured from Sigma Aldrich (St. Louis, Mo., USA). 5,5′-dithiobis (2-nitrobenzoic acid) (DTNB-Ellman's reagent) and acetylcholine iodide, (AChI) were procured from local suppliers (HiMedia, Pvt. Ltd., New Delhi, India). All other chemicals and reagents were available commercially from local suppliers (Merck Pvt. Ltd., New Delhi and HiMedia Laboratories Pvt Ltd., New Delhi, India) and were of analytical grade.
The procedure described by Ellman et al. was used after some modification for AChE inhibition assay. Acetylthiocholine iodide (ATCI), 5,5′-dithiobis (2-nitrobenzoic acid) (DTNB-Ellman's reagent) were purchased from Himedia. Donepezil was used as positive control. Tris-HCl buffer (pH 8) was used to perform the in-vitro assay. […] 50 μL of AChE (0.22 U mL^−1) and 10 μL of test or standard compounds were incubated in 96 well plate for 30 min. at room temperature (See, Table 3).
(§1) Further, substrate i.e. ATCI (15 mM, 30 μL) was added and it was incubated for additional 30 min. Finally 160 μL (1.5 mM) of DTNB was added and the absorbance was recorded at 415 nm using Epoch microplate reader (BioTek). The IC50 value was calculated using absorbance obtained from the test and standard compounds. The assay was performed in triplicate and in three independent runs.
Percentage inhibition=(Control−Test)/Control×100 Equation (1)
50 μL of AChE (0.22 U mL^−1) and 10 μL of test or standard compounds were incubated in 96 well plate for 30 min. at room temperature.
as §1, with “(see Equation 1).” for “and in three independent runs.”

[3] = Table 2, B:A ratios from mg/ml solutions
[4] = Table 5, Shilajit:B:A combinations from mg/ml solutions

T2 sequence (O42275 24-633): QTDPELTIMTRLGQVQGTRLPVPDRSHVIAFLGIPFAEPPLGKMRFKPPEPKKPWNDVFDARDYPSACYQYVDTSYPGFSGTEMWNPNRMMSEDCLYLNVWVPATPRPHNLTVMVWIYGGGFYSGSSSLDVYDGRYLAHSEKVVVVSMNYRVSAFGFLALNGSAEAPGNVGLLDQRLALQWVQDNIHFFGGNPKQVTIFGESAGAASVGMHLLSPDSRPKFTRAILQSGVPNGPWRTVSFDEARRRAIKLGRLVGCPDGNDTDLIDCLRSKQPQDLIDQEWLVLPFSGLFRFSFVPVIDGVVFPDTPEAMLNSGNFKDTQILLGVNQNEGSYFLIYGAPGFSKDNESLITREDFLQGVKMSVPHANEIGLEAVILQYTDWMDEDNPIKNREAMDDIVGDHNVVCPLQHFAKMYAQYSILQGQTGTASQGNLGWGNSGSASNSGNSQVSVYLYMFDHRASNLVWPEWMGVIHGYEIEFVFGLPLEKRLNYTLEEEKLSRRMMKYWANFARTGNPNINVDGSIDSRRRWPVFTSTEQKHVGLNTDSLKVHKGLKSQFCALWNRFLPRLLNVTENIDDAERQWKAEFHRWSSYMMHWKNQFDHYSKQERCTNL
T1 sequence (P22303 32-614): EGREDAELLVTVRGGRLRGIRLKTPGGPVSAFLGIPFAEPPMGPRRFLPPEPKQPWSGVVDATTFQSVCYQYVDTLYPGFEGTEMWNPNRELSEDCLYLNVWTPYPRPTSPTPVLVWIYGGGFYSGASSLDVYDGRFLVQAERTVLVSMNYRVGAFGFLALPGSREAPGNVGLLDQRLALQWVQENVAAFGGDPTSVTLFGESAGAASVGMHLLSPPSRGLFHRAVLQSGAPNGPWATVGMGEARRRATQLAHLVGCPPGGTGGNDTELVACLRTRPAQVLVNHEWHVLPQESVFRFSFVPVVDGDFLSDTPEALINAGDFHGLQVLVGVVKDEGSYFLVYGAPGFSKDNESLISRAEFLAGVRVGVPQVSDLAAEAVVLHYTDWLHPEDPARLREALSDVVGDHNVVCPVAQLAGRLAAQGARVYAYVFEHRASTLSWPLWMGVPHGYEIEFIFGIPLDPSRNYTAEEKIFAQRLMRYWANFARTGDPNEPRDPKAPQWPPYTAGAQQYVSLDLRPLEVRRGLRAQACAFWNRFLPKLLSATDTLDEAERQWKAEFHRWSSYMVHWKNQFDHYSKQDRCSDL

Question: Which “inhibition of Aβ40 aggregation” value ([1]; Aβ40 30 μM) does the source give for `O=c1oc2cc(O)ccc2c2ccc(O)cc12` [Urolithin A, 3,8-dihydroxy-dibenzo-alpha-pyrone] here?
Answer: ~30%

Question: What about the “inhibition of Aβ40 aggregation” value ([1]; amyloid beta 10 μM) of the same molecule?
Answer: ~34%

Question: What about the IC50 [2, 3] of the same molecule?
Answer: 0.1793 ± 0.0092 µg/mL

Question: And the IC50 [2, 4]?
Answer: 0.1793 ± 0.0092 µg/mL

Question: What does the source list for `O=c1oc2cc(O)ccc2c2ccccc12` [Urolithin B, 3-hydroxy-dibenzo-alpha-pyrone]?
Answer: inhibition of Aβ40 aggregation ([1]; Aβ40 30 μM): ~43%; inhibition of Aβ40 aggregation ([1]; amyloid beta 10 μM): ~46%; IC50 [2, 3]: 0.1430 ± 0.0057 µg/mL; IC50 [2, 4]: 0.1430 ± 0.0057 µg/mL
